Test results taken from patent US10604554B2, “Double-acylated GLP-1 derivatives” (Novo Nordisk A/S, priority 2012, dated 2020).
Read-outs that look alike come from different tables or passages of the source.

Columns and labels:
[1] = Pharmacokinetic (PK) study in rat; conditions: male, Sprague Dawley, in vivo, iv, 6 nmol/kg
[2] = Pharmacokinetic (PK) study in minipig; conditions: male, Göttingen, in vivo, iv
human GLP-1 receptor = biological target: T1, human GLP-1 receptor (Homo sapiens, UniProt P43220); experiment: In vitro potency (CRE luciferase; whole cells); type: cell-based; design: EC50/pM (ratio 1% HSA/0% HSA): unit not given here; conditions: for EC50: BHK cells; for EC50/pM (ratio 1% HSA/0% HSA): ratio of EC50 at 1% HSA to EC50 at 0% HSA
T1 construct: expressed in transfected cells; host or cells: BHK cells, clone FCW467-12A/KZ10-1 (parent line BHKTS13), further transfected with CRE luciferase
T1 sequence (P43220 24-463): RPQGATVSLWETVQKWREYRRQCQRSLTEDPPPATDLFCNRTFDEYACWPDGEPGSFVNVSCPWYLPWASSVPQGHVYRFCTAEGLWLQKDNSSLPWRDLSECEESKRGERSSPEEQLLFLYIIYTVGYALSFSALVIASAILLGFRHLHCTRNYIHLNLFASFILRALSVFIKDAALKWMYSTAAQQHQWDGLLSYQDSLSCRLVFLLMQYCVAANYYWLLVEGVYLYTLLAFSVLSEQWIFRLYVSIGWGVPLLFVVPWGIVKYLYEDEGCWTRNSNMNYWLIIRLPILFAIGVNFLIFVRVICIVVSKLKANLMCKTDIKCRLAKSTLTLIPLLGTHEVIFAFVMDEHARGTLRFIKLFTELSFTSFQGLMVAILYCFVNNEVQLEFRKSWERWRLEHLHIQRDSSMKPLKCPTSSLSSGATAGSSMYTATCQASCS
Outline: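 Reporter: CRE-luciferase in BHK cells stably expressing human GLP-1R, 5×10^3 cells/well; compounds tested in buffer containing 0% or 1% HSA.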

[3] = tested on: Landrace Yorkshire Duroc (LYD) pigs; experiment: Pharmacodynamic (PD) study in pigs, food intake; type: in vivo, pig; conditions: single s.c. dose 3.0 nmol/kg; for PD in pig, food intake (% of vehicle) for hours 0-24: 0-24 h; for PD in pig, food intake (% of vehicle) for hours 24-48: 24-48 h; for reduction in food intake (in words): versus vehicle
Description: The purpose of this experiment was to investigate the effect of a couple of Example compounds on food intake in pigs. This was done in a pharmacodynamic (PD) study as described below, in which food intake was measured from 1 to 4 days after administration of a single dose of the GLP-1 derivative, as compared to a vehicle-treated control group.
Female Landrace Yorkshire Duroc (LYD) pigs, approximately 3 months of age, weighing approximately 30-35 kg were used (n=3-4 per group). The animals were housed in a group for approximately 1 week during acclimatisation to the animal facilities. During the experimental period the animals were placed in individual pens at least 2 days before dosing and during the entire experiment for measurement of individual food intake. The animals were fed ad libitum with pig fodder (Svinefoder Danish Top) at all times both during the acclimatisation and the experimental period. Food intake was monitored on line by logging the weight of fodder every 15 minutes. The system used was Mpigwin (Ellegaard Systems, Faaborg, Denmark).
The phosphate buffer serves as vehicle. Animals are dosed with a single subcutaneous dose of the GLP-1 derivative or vehicle (dose volume 0.025 ml/kg) on the morning of day 1, and food intake is measured for 1 day after dosing. On the last day of each study, 1-4 days after dosing, a blood sample for measurement of plasma exposure of the GLP-1 derivative is taken from the heart in anaesthetised animals. The animals are thereafter euthanised with an intra-cardial overdose of pentobarbitone.
Food intake is calculated as mean±SEM food intake in 24 h intervals (0-24 h, 24-48 h, and 48-72 h). In Table 6 below the food intake is indicated as percentage of the food intake of the vehicle group in the same time interval (dosage 3.0 nmol/kg).
Statistical comparisons of the food intake in the 24 h intervals in the vehicle vs. GLP-1 derivative group are done using two-way-ANOVA repeated measures, followed by Bonferroni post-test.

in vivo = conditions: male, Sprague Dawley, rat, iv
[4] = In vitro potency (CRE luciferase) EC50 (1% HSA), 1% HSA

| Structure (SMILES) | half-life [1] | half-life [2] | EC50 (human GLP-1 receptor; In vitro potency (CRE luciferase) EC50 (0% HSA), 0% HSA) | EC50 (human GLP-1 receptor; [4]) | EC50/pM (ratio 1% HSA/0% HSA) (human GLP-1 receptor) | PD in pig, food intake (% of vehicle) for hours 0-24 [3] | PD in pig, food intake (% of vehicle) for hours 24-48 [3] | PD in pig, food intake (% of vehicle) for hours 48-72 ([3]; 48-72 h) | reduction in food intake (in words) [3] | EC50 (human GLP-1 receptor; 0% HSA, read-out: In vitro potency (CRE luciferase) EC50 (0% HSA)) | half-life (in vivo) |
| --- | --- | --- | --- | --- | --- | --- | --- | --- | --- | --- | --- |
| CC[C@H](C)[C@H](NC(=O)[C@H](Cc1ccccc1)NC(=O)[C@H](CCC(=O)O)NC(=O)[C@H](CCCCNC(=O)[C@@H](N)CCCCNC(=O)[C@@H](N)CCCCNC(=O)CC[C@H](NC(=O)CC[C@H](NC(=O)CCCCCCCCCCCOc1ccc(C(=O)O)cc1)C(=O)O)C(=O)O)NC(=O)[C@H](C)NC(=O)[C@H](C)NC(=O)[C@H](CCC(N)=O)NC(=O)CNC(=O)[C@H](CCC(=O)O)NC(=O)[C@H](CC(C)C)NC(=O)[C@H](Cc1ccc(O)cc1)NC(=O)[C@H](CO)NC(=O)[C@H](CO)NC(=O)[C@@H](NC(=O)[C@H](CC(=O)O)NC(=O)[C@H](CO)NC(=O)[C@@H](NC(=O)[C@H](Cc1ccccc1)NC(=O)[C@@H](NC(=O)CNC(=O)[C@H](CCC(=O)O)NC(=O)C(C)(C)NC(=O)[C@@H](N)Cc1c[nH]cn1)[C@@H](C)O)[C@@H](C)O)C(C)C)C(=O)N[C@@H](C)C(=O)N[C@@H](Cc1c[nH]c2ccccc12)C(=O)N[C@@H](CC(C)C)C(=O)N[C@H](C(=O)N[C@@H](CCCNC(=N)N)C(=O)NCC(=O)N[C@@H](CCCNC(=N)N)C(=O)N[C@@H](CCCCNC(=O)[C@@H](N)CCCCNC(=O)[C@@H](N)CCCCNC(=O)CC[C@H](NC(=O)CC[C@H](NC(=O)CCCCCCCCCCCOc1ccc(C(=O)O)cc1)C(=O)O)C(=O)O)C(=O)O)C(C)C [Example 16, N^ε26-[(2S)-2-amino-6-[[(2S)-2-amino-6-[[(4S)-4-carboxy-4-[[(4S)-4-carboxy-4-[12-(4-carboxyphenoxy)dodecanoylamino]butanoyl]amino]butanoyl]amino]hexanoyl]amino]hexanoyl], N^ε37-[(2S)-2-amino-6-[[(2S)-2-amino-6-[[(4S)-4-carboxy-4-[[(4S)-4-carboxy-4-[12-(4-carboxyphenoxy)dodecanoylamino]butanoyl]amino]butanoyl]amino]hexanoyl]amino]hexanoyl]-[Aib^8,Arg^34,Lys^37]-GLP-1-(7-37)-peptide] | 17 h | 64 h | 0.0033 nM | 0.047 nM | 14 | 33 % of vehicle | 43 % of vehicle | – | – | – | – |
| CC[C@H](C)[C@H](NC(=O)[C@H](Cc1ccccc1)NC(=O)[C@H](CCC(=O)O)NC(=O)[C@H](CCCCNC(=O)[C@@H](N)CCCCNC(=O)[C@@H](N)CCCCNC(=O)CC[C@H](NC(=O)CCCCCCCNC(=O)CCCCCCCCCOc1ccc(C(=O)O)cc1)C(=O)O)NC(=O)[C@H](C)NC(=O)[C@H](C)NC(=O)[C@H](CCC(N)=O)NC(=O)CNC(=O)[C@H](CCC(=O)O)NC(=O)[C@H](CC(C)C)NC(=O)[C@H](Cc1ccc(O)cc1)NC(=O)[C@H](CO)NC(=O)[C@H](CO)NC(=O)[C@@H](NC(=O)[C@H](CC(=O)O)NC(=O)[C@H](CO)NC(=O)[C@@H](NC(=O)[C@H](Cc1ccccc1)NC(=O)[C@@H](NC(=O)CNC(=O)[C@H](CCC(=O)O)NC(=O)C(C)(C)NC(=O)[C@@H](N)Cc1c[nH]cn1)[C@@H](C)O)[C@@H](C)O)C(C)C)C(=O)N[C@@H](C)C(=O)N[C@@H](Cc1c[nH]c2ccccc12)C(=O)N[C@@H](CC(C)C)C(=O)N[C@H](C(=O)N[C@@H](CCCNC(=N)N)C(=O)NCC(=O)N[C@@H](CCCNC(=N)N)C(=O)N[C@@H](CCCCNC(=O)[C@@H](N)CCCCNC(=O)[C@@H](N)CCCCNC(=O)CC[C@H](NC(=O)CCCCCCCNC(=O)CCCCCCCCCOc1ccc(C(=O)O)cc1)C(=O)O)C(=O)O)C(C)C [Example 26, N^ε26-[(2S)-2-amino-6-[[(2S)-2-amino-6-[[(4S)-4-carboxy-4-[8-[10-(4-carboxyphenoxy)decanoylamino]octanoylamino]butanoyl]amino]hexanoyl]amino]hexanoyl], N^ε37-[(2S)-2-amino-6-[[(2S)-2-amino-6-[[(4S)-4-carboxy-4-[8-[10-(4-carboxyphenoxy)decanoylamino]octanoylamino]butanoyl]amino]hexanoyl]amino]hexanoyl]-[Aib^8,Arg^34,Lys^37]-GLP-1-(7-37)-peptide] | 16 h | 13 h | – | – | – | 10 % of vehicle | 26 % of vehicle | 52 % of vehicle | very nice reduction in food intake | – | – |
| CC[C@H](C)[C@H](NC(=O)[C@H](Cc1ccccc1)NC(=O)[C@H](CCC(=O)O)NC(=O)[C@H](CCCCNC(=O)[C@@H](N)CCCCNC(=O)[C@@H](N)CCCCNC(=O)CC[C@H](NC(=O)CCCCCCCCCCCOc1ccc(C(=O)O)cc1)C(=O)O)NC(=O)[C@H](C)NC(=O)[C@H](C)NC(=O)[C@H](CCC(N)=O)NC(=O)CNC(=O)[C@H](CCC(=O)O)NC(=O)[C@H](CC(C)C)NC(=O)[C@H](Cc1ccc(O)cc1)NC(=O)[C@H](CO)NC(=O)[C@H](CO)NC(=O)[C@@H](NC(=O)[C@H](CC(=O)O)NC(=O)[C@H](CO)NC(=O)[C@@H](NC(=O)[C@H](Cc1ccccc1)NC(=O)[C@@H](NC(=O)CNC(=O)[C@H](CCC(=O)O)NC(=O)C(C)(C)NC(=O)[C@@H](N)Cc1c[nH]cn1)[C@@H](C)O)[C@@H](C)O)C(C)C)C(=O)N[C@@H](C)C(=O)N[C@@H](Cc1c[nH]c2ccccc12)C(=O)N[C@@H](CC(C)C)C(=O)N[C@H](C(=O)N[C@@H](CCCNC(=N)N)C(=O)NCC(=O)N[C@@H](CCCNC(=N)N)C(=O)N[C@@H](CCCCNC(=O)[C@@H](N)CCCCNC(=O)[C@@H](N)CCCCNC(=O)CC[C@H](NC(=O)CCCCCCCCCCCOc1ccc(C(=O)O)cc1)C(=O)O)C(=O)O)C(C)C [Example 7, N^ε26-[(2S)-2-amino-6-[[(2S)-2-amino-6-[[(4S)-4-carboxy-4-[12-(4-carboxyphenoxy)dodecanoylamino]butanoyl]amino]hexanoyl]amino]hexanoyl], N^ε37-[(2S)-2-amino-6-[[(2S)-2-amino-6-[[(4S)-4-carboxy-4-[12-(4-carboxyphenoxy)dodecanoylamino]butanoyl]amino]hexanoyl]amino]hexanoyl]-[Aib^8,Arg^34,Lys^37]-GLP-1-(7-37)-peptide] | 17 h | 69 h | – | 0.096 nM | – | 14 % of vehicle | 18 % of vehicle | – | very nice reduction in food intake | – | – |
| CC[C@H](C)[C@H](NC(=O)[C@H](Cc1ccccc1)NC(=O)[C@H](CCC(=O)O)NC(=O)[C@H](CCCCNC(=O)[C@@H](N)CCCCNC(=O)[C@@H](N)CCCCNC(=O)CC[C@H](NC(=O)CCCCCCCCCCCCCCCCC(=O)O)C(=O)O)NC(=O)[C@H](C)NC(=O)[C@H](C)NC(=O)[C@H](CCC(N)=O)NC(=O)CNC(=O)[C@H](CCC(=O)O)NC(=O)[C@H](CC(C)C)NC(=O)[C@H](Cc1ccc(O)cc1)NC(=O)[C@H](CO)NC(=O)[C@H](CO)NC(=O)[C@@H](NC(=O)[C@H](CC(=O)O)NC(=O)[C@H](CO)NC(=O)[C@@H](NC(=O)[C@H](Cc1ccccc1)NC(=O)[C@@H](NC(=O)CNC(=O)[C@H](CCC(=O)O)NC(=O)C(C)(C)NC(=O)[C@@H](N)Cc1c[nH]cn1)[C@@H](C)O)[C@@H](C)O)C(C)C)C(=O)N[C@@H](C)C(=O)N[C@@H](Cc1c[nH]c2ccccc12)C(=O)N[C@@H](CC(C)C)C(=O)N[C@H](C(=O)N[C@@H](CCCNC(=N)N)C(=O)NCC(=O)N[C@@H](CCCNC(=N)N)C(=O)N[C@@H](CCCCNC(=O)[C@@H](N)CCCCNC(=O)[C@@H](N)CCCCNC(=O)CC[C@H](NC(=O)CCCCCCCCCCCCCCCCC(=O)O)C(=O)O)C(=O)O)C(C)C [Example 27, N^ε26-[(2S)-2-amino-6-[[(2S)-2-amino-6-[[(4S)-4-carboxy-4-(17-carboxyheptadecanoylamino)butanoyl]amino]hexanoyl]amino]hexanoyl], N^ε37-[(2S)-2-amino-6-[[(2S)-2-amino-6-[[(4S)-4-carboxy-4-(17-carboxyheptadecanoylamino)butanoyl]amino]hexanoyl]amino]hexanoyl]-[Aib^8,Arg^34,Lys^37]-GLP-1-(7-37)-peptide] | – | – | – | 6.19 nM | 276 | – | – | – | – | 0.022 nM | 21 h |
